Test systems include MCF7 breast; PC-3 prostate; BT-549 breast; NCI/ADR-RES ovarian; KM20L2 colon; XF 498 CNS; MDA-N; HOP-18 NSCLC.
What all share (assay): inhibition of tumour cell growth, NCI panel, 48 h

Molecules are shown by their SMILES.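 Five concentrations, 48 hours, 96-well plates. At the GI50, growth is halved. At the TGI there is no net growth.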

For the compound `O=C1NC(=S)S/C1=C(/C=C(\CC(=O)c1ccccc1)c1ccc(Cl)cc1)c1ccccc1`, the GI50 is 19.8 µM with MCF7 breast, 25.8 µM with PC-3 prostate, 33 µM in the assay with BT-549 breast and 28.4 µM with NCI/ADR-RES ovarian. Further, the TGI is 48.1 µM in the assay on MCF7 breast, 83.3 µM in the assay on PC-3 prostate, above 100 µM in the assay with BT-549 breast and 79.9 µM in the assay with NCI/ADR-RES ovarian.
Turning to `NC(=S)NNc1c([N+](=O)[O-])cnn(-c2ccccc2)c1=O`, the figures for the TGI with KM20L2 colon and in the assay with XF 498 CNS were 29.8 µM and 32.6 µM, respectively.
In the assay on KM20L2 colon, `CC(=O)OCC(OC(C)=O)C(OC(C)=O)C(OC(C)=O)C(=O)CNn1c(-c2ccccc2Cl)nc2ccccc2c1=O` (stereo unspecified) gave a TGI above 100 µM.
As to `CCOC(=O)/C=C/C1=C(c2cccs2)c2ccccc2CC1`, the GI50 in the assay on MCF7 breast was 36.1 µM; with PC-3 prostate, 37.1 µM; with BT-549 breast it was 24.2 µM; with NCI/ADR-RES ovarian it was 21.1 µM. In addition, the TGI was above 100 µM with MCF7 breast, above 100 µM in the assay on PC-3 prostate, 54.3 µM in the assay with BT-549 breast and 55.9 µM in the assay on NCI/ADR-RES ovarian.
Take `COc1ccc(-c2oc3c(OC)c(OC)c(OC)c(OC)c3c(=O)c2OC)cc1OC`: the TGI was above 100 µM in the assay on MCF7 breast; above 100 µM with MDA-N; above 100 µM in the assay on PC-3 prostate; above 100 µM in the assay on BT-549 breast; 74 µM in the assay with NCI/ADR-RES ovarian.
As for `CCn1c(-c2nonc2N)nc2c(C#CC(C)(C)O)nc(OCCNC)cc21`, the GI50 in the assay on MCF7 breast was 4.9 µM; in the assay with PC-3 prostate, 6.88 µM; in the assay with BT-549 breast, 7.17 µM; in the assay with NCI/ADR-RES ovarian, above 25 µM. The TGI in the assay with MCF7 breast is above 25 µM; with PC-3 prostate, above 25 µM; with BT-549 breast, above 22.1 µM; in the assay on NCI/ADR-RES ovarian it was above 25 µM.
In the case of `Cc1ccc(-c2csc(NC(=O)CN3CCN(c4cc5c(cc4F)c(=O)c(C(=O)O)cn5C4CC4)CC3)n2)cc1`, the GI50 in the assay with MCF7 breast was 0.638 µM; with PC-3 prostate it was 0.504 µM; with BT-549 breast, 0.358 µM; with NCI/ADR-RES ovarian it was 3.06 µM. Further, the TGI is above 100 µM in the assay on MCF7 breast, above 100 µM in the assay on PC-3 prostate, 10.7 µM in the assay with BT-549 breast and 34 µM in the assay on NCI/ADR-RES ovarian.
With `Cc1cc2c(cc1Cl)SC1=NN(C)C(N(C)C)N1S2(=O)=O` (stereo unspecified), the GI50 in the assay with MCF7 breast, with PC-3 prostate, in the assay on BT-549 breast and in the assay on NCI/ADR-RES ovarian was above 100 µM throughout. Moreover, the TGI in the assay with MCF7 breast, in the assay on PC-3 prostate, in the assay with BT-549 breast and with NCI/ADR-RES ovarian was above 100 µM in each case.
On to `Cc1cccc(C)c1NC(=O)C1C(=O)N(c2c(C)cccc2C)C(=O)/C1=N\NC(N)=S` (stereo unspecified), for which the TGI in the assay with KM20L2 colon and with HOP-18 NSCLC was above 100 µM in each case.
Consider `Cc1ccc2nc(-c3ccc(N(C)C)c(Br)c3)cn2c1`, for which the GI50 is 27.8 µM with MCF7 breast, 5.69 µM with PC-3 prostate, 63.3 µM in the assay with BT-549 breast and above 100 µM with NCI/ADR-RES ovarian. Besides, the TGI with MCF7 breast, in the assay on PC-3 prostate, in the assay on BT-549 breast and in the assay on NCI/ADR-RES ovarian was above 100 µM in each case.
For `Cc1[nH]nc(C(=O)n2nc(N)c3ccccc32)c1[N+](=O)[O-]`, the GI50 with MCF7 breast is above 100 µM; in the assay with PC-3 prostate, above 100 µM; in the assay on BT-549 breast it was above 90.8 µM; in the assay with NCI/ADR-RES ovarian, above 100 µM. The TGI with MCF7 breast, in the assay with PC-3 prostate, with BT-549 breast and in the assay on NCI/ADR-RES ovarian was above 100 µM each time.
As to `O=C1C(c2ccccc2)=[N+]([O-])c2ccccc21`, the TGI in the assay with MCF7 breast is 4.88 µM; with MDA-N it was 12.8 µM; in the assay on PC-3 prostate, 27.3 µM; with NCI/ADR-RES ovarian, 36.3 µM.
As for `COc1ccc(N2C(=O)[C@H]3CC(C)c4c([nH]c5ccccc45)[C@H]3C2=O)cc1` (stereo partly specified), the TGI with MCF7 breast is above 100 µM; in the assay with MDA-N, 3.4 µM; with KM20L2 colon, 12.7 µM; in the assay with PC-3 prostate, 23.6 µM; with XF 498 CNS, 22.4 µM; in the assay on BT-549 breast it was above 80.7 µM. Besides, the TGI in the assay on NCI/ADR-RES ovarian was 12.4 µM.
`N.N.N.N.O=C([O-])C(Cl)Cl.O=C([O-])C(Cl)Cl.[Co+3].[O-][Cl+3]([O-])([O-])[O-]`: in the assay on KM20L2 colon, the GI50 is above 100 µM and the TGI was above 100 µM.
For the compound `COc1ccc2cc(-c3c(-c4ccncc4)nc(-c4ccc(S(C)(=O)=O)cc4C)n3C)ccc2c1`, the GI50 with MCF7 breast is 7.09 µM; in the assay on PC-3 prostate it was 8.35 µM; in the assay on BT-549 breast, 10.6 µM; with NCI/ADR-RES ovarian it was 8.67 µM. Further, the TGI with MCF7 breast was above 18.4 µM; in the assay with PC-3 prostate, above 25 µM; with BT-549 breast, above 25 µM; in the assay with NCI/ADR-RES ovarian it was above 25 µM.
Turning to `Cc1nc2sccn2c1-c1csc(Nc2cccc(Cl)c2C)n1`, the GI50 was 3.34 µM in the assay with MCF7 breast, 3.72 µM in the assay with PC-3 prostate, 3.44 µM in the assay on BT-549 breast and 3.45 µM in the assay on NCI/ADR-RES ovarian. Also, the TGI was found to be 25.6 µM in the assay on MCF7 breast, 87.3 µM in the assay on PC-3 prostate, 20.5 µM in the assay on BT-549 breast and 45.2 µM in the assay on NCI/ADR-RES ovarian.
Turning to `Cc1cc2c(cc1C)N(C(=O)CCl)CCN2C(=O)CCl`, the GI50 was 0.451 µM in the assay on MCF7 breast, 1.43 µM in the assay with PC-3 prostate, 1.31 µM in the assay with BT-549 breast and 0.746 µM in the assay on NCI/ADR-RES ovarian. The TGI was determined as 2.02 µM with MCF7 breast, 2.89 µM with PC-3 prostate, 2.7 µM in the assay on BT-549 breast and 5.9 µM in the assay with NCI/ADR-RES ovarian.
As for `CCC[n+]1cc2cc(OC)c(OC)cc2c2c1-c1cc3c(cc1C2)OCO3`, the GI50 is 2.59 µM in the assay on MCF7 breast; 2830 nM in the assay on MDA-N; 4.7 µM with PC-3 prostate; 0.658 µM with BT-549 breast; 35.2 µM in the assay with NCI/ADR-RES ovarian. For the same compound, the TGI in the assay on MCF7 breast is above 33.8 µM; with MDA-N it was 11 µM; with PC-3 prostate, 20.7 µM; in the assay with BT-549 breast, 10.6 µM; in the assay with NCI/ADR-RES ovarian, above 100 µM.
`COc1ccc(C2=NN(C=O)C(c3cccc(Nc4ccnc5cc(Cl)ccc45)c3)C2)cc1` (stereo unspecified): the GI50 with MCF7 breast was 1.59 µM; in the assay with PC-3 prostate, 2.87 µM; in the assay on BT-549 breast it was 1.93 µM; in the assay on NCI/ADR-RES ovarian, 1.66 µM. Moreover, the TGI in the assay on MCF7 breast is 39.4 µM; in the assay with PC-3 prostate it was above 100 µM; in the assay with BT-549 breast it was 9.87 µM; in the assay with NCI/ADR-RES ovarian, 31.7 µM.

For the origin of these results see PubChem BioAssay (NCI).
